Data as given in ChEMBL document CHEMBL3425431, “Synthesis and evaluation of constrained phosphoramidate inhibitors of prostate-specific membrane antigen” (Bioorg Med Chem Lett, 2015).
Activity calls are given as the source filed them. No cut-off for these calls is given here.

What was measured:
[1] = molecular target: T1, Glutamate carboxypeptidase 2 (Homo sapiens, UniProt Q04609); test: Inhibition of PSMA (unknown origin) incubated for 15 mins using PABGgG substrate by HPLC method
Target sequence in this assay (Q04609 whole entry): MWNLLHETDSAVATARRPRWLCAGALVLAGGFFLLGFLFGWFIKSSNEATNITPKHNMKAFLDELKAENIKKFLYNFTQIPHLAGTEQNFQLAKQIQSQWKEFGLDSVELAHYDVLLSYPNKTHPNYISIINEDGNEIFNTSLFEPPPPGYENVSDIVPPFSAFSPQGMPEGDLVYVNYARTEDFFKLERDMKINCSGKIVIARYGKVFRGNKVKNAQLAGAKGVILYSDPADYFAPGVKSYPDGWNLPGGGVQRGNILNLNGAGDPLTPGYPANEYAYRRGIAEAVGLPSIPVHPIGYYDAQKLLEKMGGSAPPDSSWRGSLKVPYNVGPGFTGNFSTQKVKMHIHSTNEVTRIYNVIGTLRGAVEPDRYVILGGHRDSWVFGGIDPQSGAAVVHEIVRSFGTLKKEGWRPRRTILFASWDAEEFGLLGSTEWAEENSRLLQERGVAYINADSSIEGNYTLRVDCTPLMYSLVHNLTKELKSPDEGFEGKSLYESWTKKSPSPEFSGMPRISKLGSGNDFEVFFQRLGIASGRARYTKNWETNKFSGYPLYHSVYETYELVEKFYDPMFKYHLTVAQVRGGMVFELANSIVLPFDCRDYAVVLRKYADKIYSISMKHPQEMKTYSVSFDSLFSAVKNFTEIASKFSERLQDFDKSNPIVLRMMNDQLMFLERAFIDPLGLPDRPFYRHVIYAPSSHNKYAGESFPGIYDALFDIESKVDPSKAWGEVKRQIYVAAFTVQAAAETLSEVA

[2] = Half life in pH 4.5 buffer at 70 degC by [31P] NMR spectrometry; format: physicochemical
[3] = Half life in pH 4.5 buffer at 50 degC by [31P] NMR spectrometry; format: physicochemical
Mus musculus = test: Drug uptake in other organs of human CWR22Rv1 cells xenografted athymic NCr-nu/nu mouse at 200 uCi, iv after 2 hrs by microPET/CT imaging method; format: ADME, organism-based; settings: in vivo
Kidney = test: Drug uptake in kidney of human CWR22Rv1 cells xenografted athymic NCr-nu/nu mouse at 200 uCi, iv after 2 hrs by microPET/CT imaging method; format: ADME, organism-based; settings: in vivo
[4] = Drug uptake in tumor of human CWR22Rv1 cells xenografted athymic NCr-nu/nu mouse at 200 uCi, iv after 2 hrs by microPET/CT imaging method; format: ADME, organism-based, CWR22R; settings: in vivo
[5] = molecular target: T1, Glutamate carboxypeptidase 2; settings: 0.1 uM
Target sequence in this assay (Q04609 whole entry, looked up): as the sequence (Q04609 whole entry) above
Description: Slow reversible inhibition of PSMA (unknown origin) at 0.1 uM pre-incubated for 10 mins before PABGgG substrate addition by HPLC method

Row | SMILES | IC50 [1] [nM] | inhibition [5] | also measured
1 | O=C(O)CC[C@H](NP(=O)(O)OCCC[C@H](NC(=O)CC[C@H](NC(=O)CCCCCNC(=O)c1ccc(F)cc1)C(=O)O)C(=O)O)C(=O)O [CTT-1057] | 0.4 | – | half-life [2]: 12 min; half-life [3]: 75 min
2 | O=C(O)CC[C@H](NP(=O)(O)O[C@@H]1C[C@@H](C(=O)O)N(C(=O)CC[C@H](NC(=O)CCCCCNC(=O)c2ccc(F)cc2)C(=O)O)C1)C(=O)O.O=C(O)CC[C@H](NP(=O)(O)O[C@@H]1C[C@@H](C(=O)O)N(C(=O)CC[C@H](NC(=O)CCCCCNC(=O)c2ccc([18F])cc2)C(=O)O)C1)C(=O)O | – | – | Drug uptake (Mus musculus): Active; Drug uptake (Kidney): Active; Drug uptake [4]: Active
3 | O=C(O)CC[C@H](NP(=O)(O)O[C@H]1C[C@H](C(=O)O)N(C(=O)CC[C@H](NC(=O)CCCCCNC(=O)c2ccc(F)cc2)C(=O)O)C1)C(=O)O | 11 | Active | –
4 | O=C(O)CC[C@H](NP(=O)(O)O[C@@H]1C[C@@H](C(=O)O)N(C(=O)CC[C@H](NC(=O)c2ccc(F)cc2)C(=O)O)C1)C(=O)O | 2.6 | Active | –
5 | O=C(O)CC[C@H](NP(=O)(O)O[C@H]1C[C@H](C(=O)O)N(C(=O)CC[C@H](NC(=O)c2ccc(F)cc2)C(=O)O)C1)C(=O)O | 3 | Active | –
6 | NCCCCCC(=O)N[C@@H](CCC(=O)N1C[C@@H](OP(=O)(O)N[C@@H](CCC(=O)O)C(=O)O)C[C@@H]1C(=O)O)C(=O)O | 112 | Active | –
7 | N[C@@H](CCC(=O)N1C[C@H](OP(=O)(O)N[C@@H](CCC(=O)O)C(=O)O)C[C@H]1C(=O)O)C(=O)O | 60 | Active | –
8 | NCCCCCC(=O)N[C@@H](CCC(=O)N1C[C@H](OP(=O)(O)N[C@@H](CCC(=O)O)C(=O)O)C[C@H]1C(=O)O)C(=O)O | 79 | Active | –
9 | O=C(O)CC[C@H](NP(=O)(O)O[C@@H]1C[C@@H](C(=O)O)N(C(=O)CC[C@H](NC(=O)CCCCCNC(=O)c2ccc(F)cc2)C(=O)O)C1)C(=O)O | 1.3 | Active | half-life [2]: 32 min; half-life [3]: 105 min
10 | N[C@@H](CCC(=O)N1C[C@@H](OP(=O)(O)N[C@@H](CCC(=O)O)C(=O)O)C[C@@H]1C(=O)O)C(=O)O | 357 | Active | –
11 | NCCCCCC(=O)N[C@@H](CCC(=O)N[C@@H](CCCOP(=O)(O)N[C@@H](CCC(=O)O)C(=O)O)C(=O)O)C(=O)O | 19 | – | –
12 | O=C(O)CC[C@H](NP(=O)(O)OCCC[C@H](NC(=O)CC[C@H](NC(=O)c1ccc(F)cc1)C(=O)O)C(=O)O)C(=O)O | 1.3 | – | –
13 | N[C@@H](CCC(=O)N[C@@H](CCCOP(=O)(O)N[C@@H](CCC(=O)O)C(=O)O)C(=O)O)C(=O)O | 27 | – | –
